Usually Ki stands for a dissociation constant, usually derived from enzyme kinetics or from competition with a known ligand. What is called EC50 is the midpoint of the concentration-response curve. Read a low EC50 as a more potent agent.

Several values for one entry are separate records, joined by “and”; a condition that tells them apart may be missing. Equal values may be shown once.

The source of these data is patent US20250002435A1, “ARYLATED FENCHONE DERIVATIVES, COMPOSITIONS COMPRISING THEM, PROCESSES FOR THEIR PREPARATION AND USES THEREOF” (priority 2021, published 2025).

For assay [1], the system named is zymosan-induced hyperalgesia. Nature of the assay: von Frey nociceptive filament assay after zymosan (5b, 5d, CBD). The format is in vivo, mouse. How it is done: (§1) Cannabidiol (CBD), a major constituent of Cannabis, resembles fenchone derivatives in structure. It has powerful anti-inflammatory and anti-anxiety properties and therefore it is used as a positive control. […] In accordance with these findings, the anti-nociceptive effect, as determined by the von Frey monofilament assay peaked at 6 h (p<0.01) (FIG. 10C).
(§2) To induce inflammation, 40 μL of 1.5% (w/v) zymosan A (Sigma) suspended in 0.9% saline was injected into the sub-planter surface of the right hind paw of the mice. Immediately after zymosan injection, fenchone derivative was injected intraperitoneally (i.p.) after the compounds were dissolved in 0.1 mL vehicle containing ethanol:Cremophore:saline at a ratio of 1:1:18. Control mice were injected with the vehicle only. After 2, 6 and 24 hrs, paw swelling and pain perception were measured.
(§3) The hyperalgesia was evaluated by the paw withdrawal von Frey test at 2, 6, and 24 hrs following injections of zymosan and/or the test compounds. […] In this study, only 1.4-60 g corresponding to 4.17 to 5.88 log of force was used, to test the mouse sensitivity to a mechanical stimulus on the swollen paw. The measurements were performed in a quiet room. Before paw pain measurements, the animals were held for 10 sec. The trained investigator applied the filament to the central area of the hind paw with gradual increasing size. The test consisted of poking the middle of the hind paw to provoke a flexion reflex followed by a clear flinch response after paw withdrawal. Each one of the von Frey filaments was applied for approximately 3-4 s to induce the end-point reflex. The first testing was done by using the force filament of 1.4 g. If there was no withdrawal response, the next higher stimulus was tried. The mechanical threshold force (in grams (g)) was defined as the lowest force imposed by two von Frey monofilaments of various sizes, required to produce a paw retraction. The untreated left hind paw served as a control.

For assay [2], the target named is T1, hCB2R (Homo sapiens (Human), UniProt P34972). The experiment in a line: [35S]GTPγS binding assay, hCB2R CHO cell membranes. The format is biochemical. The conditions noted are these: for functional activity at hCB2R (agonist / inverse agonist): [35S]GTPγS binding. How it is done:
Functional Characterization.
The method used for measuring agonist-stimulated binding of [^35S]GTPγS was based on a described protocol. The assays were carried out with GTPγS assay buffer (50 mM Tris HCl (pH 7.4), 0.2 mM EGTA, 9 mM MgCl2, 150 mM NaCl, 1 mg/ml BSA). Briefly, membranes (5 μg protein) were incubated in assay buffer containing 100 μM GDP, 0.05 nM [^35S]GTPγS, test compounds at various concentrations in siliconized glass tubes. Bound ligand was separated from free ligand by vacuum filtration. Nonspecific binding was determined using 10 μM GTPS. Basal binding was assayed in the absence of the ligand and in the presence of GDP.
For orientation: GTPγS resists hydrolysis and so accumulates on activated G proteins.

Assay [3] deals with medial meniscal tear (MMT) post-traumatic OA. The experiment in a line: rat MMT model, histopathology of medial tibial joint 28 days post MMT. The format is in vivo. The conditions noted are these: FGF18 60 μg/mL IA. On the procedure:
(§4) The rat OA model employed was surgically-induced medial meniscal tear (MMT), wherein rats were anesthetized with Isoflurane (VetOne, catalogue No. 502017), and the right knee area was prepared for surgery. A skin incision was made over the medial aspect of the knee, and the medial collateral ligament was exposed by blunt dissection and then transected. The medial meniscus was cut through the full thickness to simulate a complete tear. Skin and subcutis were closed with 4-0 Coated Vicryl (polyglactin 910) Violet Braided Suture (Ethicon, catalogue No. J399H), and slight hand pressure was applied to the wound for approximately 3 minutes for hemostasis. Subcutaneous (SC) dose of buprenorphine (0.05 mg/kg) administered after the animal awakened post-surgery. Rats were weighed daily on study days −1 through 7 and again on days 14, 21, and 28 (prior to necropsy). […] The animals were euthanized for necropsy 28 days post-surgery, following Isoflurane anesthesia, and bled to exsanguination followed by bilateral pneumothorax.
Right knees were collected from all animals and trimmed of muscle and patellae. The trimmed joints were placed in 10% neutral buffered formalin (NBF) for histologic processing and evaluation. Samples were fixed for 3 days in 4% paraformaldehyde and decalcified for 21 days in 10% EDTA, pH=7.5. Then following dehydration in a graded series of ethanol washes, joints were embedded in paraffin and sectioned to 7 μm slices, following trimming off 1 mm until the tibiofemoral compartments are fully observed. Sections were obtained from each knee and stained with toluidine blue (0.04% in 0.2 M acetate buffer, Ph=4.0), based on a modified version of the methods used in Schmitz, et al. (2010), (11). Histopathology was carried out using an ocular micrometer. The following structural histological characterization was carried out:
Regional differences across the tibial plateau were taken into consideration by dividing each section into three zones: (1) outside, (2) middle, and (3) inside. In the surgical OA model, the outside (zone-1) and middle (zone-2) thirds are most severely affected, and milder changes are present on the inside third (zone 3). When zones were scored individually, scores were assigned based on percent area of the zone affected. General cartilage degeneration including chondrocyte death/loss, proteoglycan (PG) loss, and collagen loss or fibrillation. Zones were scored individually (0-5; 5 representing sever damage; SD3), and a sum of all three zones was calculated (termed “Total Joint scores”).
The zone related cartilage depth is calculated from the projected articular surface tot the tidemark. Reduced ratios embody less detected cartilage width vs projected cartilage with area, per zone.
Osteophyte thickness (tidemark to furthest point extending toward synovium) was measured and scored according to a range from 0-5, as in SD4.
Damage to the calcified cartilage layer and subchondral bone was scored using the criteria in SD5. Generally damage was considered as invagination of deep zone cartilage into the subchondral bone layer.
[…] Descriptions of other changes (typically fibrosis, or acute inflammation/neutrophil infiltration extending into the lateral compartment usually associated with IA treatments) were also provided, if present.

The test system is the same in assay [4]. The experiment in a line: rat medial meniscal tear (MMT) model, body weight and dynamic weight bearing. The format is in vivo. The conditions noted are these: FGF18 60 μg/mL IA. On the procedure:
Initially, the required amount of HU308 dissolved in ethanol followed by addition of […] with vigorous mechanical agitation to form viscous micelle solution. Finally, the micelle solution was diluted in ice cold saline for injection or culture assays. Vehicle solution consisted of ethanol, cremophor and saline at 1:1:18 ratio. For intra-articular (IA) dosing 50 μL was injected into the tibiofemoral joint, at two doses; 8 and 24 μg/mL. Vehicle control contained 1:1:18 ethanol/Cremophor/saline, while positive control was of IA administered 60 μg/mL FGF-18 (R&D Systems, catalogue No. 8988-F18-050, lot No. BVE0521071) for IA dosing at 50 μL/knee.
as §4

In assay [5] the test system is zymosan-induced swelling of hind paw. The experiment in a line: zymosan-induced hind paw swelling in mice (5b, 5d, CBD). The format is in vivo, mouse. How it is done: as §1, §2
The paw swelling (thickness) was measured by calibrated calipers (0.01 mm), 2, 6 and 24 hrs following injections of zymosan alone or Fenchone derivatives.

Assay [6] concerns TNFα. The experiment in a line: serum TNFα ELISA 24 h after zymosan injection. The format is in vivo, mouse. Conditions: AM630 added to 1D. How it is done: Blood was collected 24 h after zymosan injection, and the sera were assayed for TNFα using a mouse TNFα ELISA kit (R&D Systems, Minneapolis, MN, USA), according to the manufacturer's instructions.
In general terms: In an ELISA, binding on a coated surface is turned into a signal by an enzyme label.

Assay [7] concerns zymosan-induced paw swelling. The experiment in a line: zymosan mouse paw inflammatory pain model, paw swelling, with or without CB2 antagonists. Conditions: 10 mg/kg AM630 with 1D, 24 h. The format is in vivo. On the procedure:
(§5) To induce inflammation, 40 μL of 1.5% (w/v) zymosan A (Sigma) suspended in 0.9% saline was injected into the sub-planter surface of the right hind paw of the mice. Immediately after zymosan injection, antagonists were injected intraperitoneally (IP) and after 30 minutes, the fenchone derivatives dissolved in 0.1 mL vehicle containing ethanol:Cremophore:saline at a ratio of 1:1:18 were injected. Control mice were injected with the vehicle only. After 2, 6, and 24 hrs, paw swelling, and pain perception were measured.
as §3, with “Specifically, measurement of Oedema Formation was assessed by monitoring paw swelling via calibrated calipers (0.01 mm), 6 and 24 hrs following injections of zymosan alone and/or the test compounds. Pain hyperalgesia” for “The hyperalgesia”, “at” for “at 2,”, “24 h” for “24 hrs”

The test system of assay [8] is zymosan-induced hyperalgesia. The experiment in a line: zymosan mouse paw inflammatory pain model, von Frey test, with or without CB2 antagonists. Conditions: addition of AM630, 24 h. The format is in vivo. On the procedure:
as §5
as §3, with “Specifically, measurement of Oedema Formation was assessed by monitoring paw swelling via calibrated calipers (0.01 mm), 6 and 24 hrs following injections of zymosan alone and/or the test compounds. Pain hyperalgesia” for “The hyperalgesia”, “at” for “at 2,”, “24 h” for “24 hrs”

In assay [9] the target is mCB1R (Mus musculus (Mouse), UniProt P47746). Nature of the assay: [3H]CP-55,940 competition displacement binding, crude membranes from mouse brain. Conditions: displacement of [3H]CP-55,940; NB = No binding detected at concentrations up to 10 μM; read-out: Ki (nM) mCB1R. On the procedure: (§6) Affinity for Cannabinoid Receptors. The compounds were further characterized using a radioligand binding assay to determine their affinities for CB1R and CB2R based on each test compound's ability to displace the radiolabeled CB1R/CB2R agonist CP-55,940 from membranes prepared from a mouse brain (a source of CB1R) and membranes of cells expressing the human CB2R. […] Therefore, the compounds were assayed using membranes from CHO-K1 cells expressing the human CB2R (hCB2R).
(§7) Membranes from cells expressing human CB2R were purchased from Charles River, (Cat #A308; Ohio, US). Solutions of test compounds ranging from 0.1 nM to 10 mM were prepared in DMSO. The desired amount of membrane preparation was diluted with ice-cold assay buffer (50 mM Tris-HCl, 2.5 mM EDTA, 5 mM MgCl2, 0.1% BSA, pH 7.4) and was vortexed. […] The assays were incubated for 90 minutes at 30° C. and then immediately filtered on WHATMAN GF/B FilterPaper (Fired) using a Brandel M-24R Harvester followed by six washes with ice cold wash buffer (50 mM Tris-HCl, 2.5 mM EDTA, 5 mM MgCl2, 0.1% BSA, pH 7.4). Radioactivity was detected by adding the FilterPaper directly to the ULTIMA GOLD scintillation cocktail (PerkinElmer), incubation at 20° C. for 60 min and then counted using a Tri-Carb 4910TR liquid scintillation counter.
For orientation: Loss of bound radioactivity is the signal in a displacement assay; it reports binding, not function.

In assay [10] the target is T1, hCB2R. The experiment in a line: [3H]CP-55,940 competition displacement binding, membranes of CHO-K1 cells expressing human CB2R. How it is done: as §6, §7

T1 sequence (P34972 whole entry): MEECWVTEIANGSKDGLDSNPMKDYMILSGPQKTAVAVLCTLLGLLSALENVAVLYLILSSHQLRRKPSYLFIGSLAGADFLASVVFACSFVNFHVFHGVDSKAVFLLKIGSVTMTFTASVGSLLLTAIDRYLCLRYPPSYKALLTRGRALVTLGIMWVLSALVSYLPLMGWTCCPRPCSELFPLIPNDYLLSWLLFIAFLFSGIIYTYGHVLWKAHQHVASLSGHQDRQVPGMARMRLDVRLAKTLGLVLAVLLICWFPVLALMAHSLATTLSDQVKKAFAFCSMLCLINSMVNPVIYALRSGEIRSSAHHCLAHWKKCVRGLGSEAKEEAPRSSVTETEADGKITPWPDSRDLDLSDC
Chain of mCB1R (P47746 whole entry): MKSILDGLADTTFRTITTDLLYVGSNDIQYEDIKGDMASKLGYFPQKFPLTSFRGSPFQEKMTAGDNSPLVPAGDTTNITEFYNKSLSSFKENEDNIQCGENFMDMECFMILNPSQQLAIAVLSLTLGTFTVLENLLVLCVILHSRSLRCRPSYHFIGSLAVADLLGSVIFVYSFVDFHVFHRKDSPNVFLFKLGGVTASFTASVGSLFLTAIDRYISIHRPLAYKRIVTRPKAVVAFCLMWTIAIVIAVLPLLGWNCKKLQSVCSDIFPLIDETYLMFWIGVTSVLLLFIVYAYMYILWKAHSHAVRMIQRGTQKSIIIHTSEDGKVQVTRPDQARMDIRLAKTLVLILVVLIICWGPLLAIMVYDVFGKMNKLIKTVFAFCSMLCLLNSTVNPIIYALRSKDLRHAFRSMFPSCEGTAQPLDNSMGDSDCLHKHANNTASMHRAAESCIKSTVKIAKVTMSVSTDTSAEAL

As for `CCCCCc1cc(O)c(C2(O)C3(C)CCC(C3)C2(C)C)c(OC)c1` (single isomer, unassigned) [Compound 5b, 2-(2′-hydroxy-6′-methoxy-4′-pentylphenyl)-1,3,3-trimethylbicyclo[2.2.1]heptan-2-ol], in [1] (10 and 25 mg/kg ip, after 6 and 24 h), the “anti-nociceptive effect (von Frey)” value is recorded as “strong anti-nociceptive effects”. The “functional activity at hCB2R (agonist / inverse agonist)” value in assay [2] is listed as “agonist”.

Consider “FGF18: positive control, IA administered 60 μg/mL FGF-18 (R&D Systems); anabolic effect to articular cartilage”, for which, in [3], the “mean zonal depth ratios” value was “reduced depth ratios” and the “zone 3 cartilage degeneration score” value was “no beneficial effect”. Moreover, the “total zonal cartilage degeneration scores” value in assay [3] (vs 1D low dose and Vehicle) is “significantly reduced degenerative scores”. For the same compound, in assay [3] (vs all groups), the medial synovial scores entry was “highest”; the “osteophyte measurements and scores” value is “significantly higher measurements and scores”. Moreover, the bone damage result in assay [3] (vs the 1D high dose) is “relatively reduced levels”. Further, the “cumulative area under the curves for dynamic weight bearing (DWB)” value in assay [4] was “highest values”.

Turning to `C=C(C)[C@@H]1CCC(C)=C[C@H]1c1c(O)cc(CCCCC)cc1O` [CBD, Cannabidiol, reference compound], the “inhibition of inflammation (paw swelling)” value was found to be 40% in [5] (5 mg/kg ip, 6 h, FIG. 10A); 43% in [5] (5 mg/kg ip, 24 h, FIG. 10A); 58% in assay [5] (positive control in the 5d experiment (FIG. 10B), 6 h); 78% in [5] (positive control in the 5d experiment (FIG. 10B), 24 h). The “time at which the anti-nociceptive effect peaked (von Frey)” value in assay [1] (CBD positive control) turned out to be 6 h.

With `COc1ccc(C(=O)c2c(C)n(CCN3CCOCC3)c3cc(I)ccc23)cc1` [AM630, reference compound], the “effect of antagonist on the 1D reduction of TNF-α” value in [6] is recorded as “abolished”. Besides, in [7], the “effect of antagonist on the 1D-reduced swelling” value is on record as “fully inhibited its effect”. In addition, the “effect of antagonist on the 1D von Frey effect” value in assay [8] was “reversed”.

On to `CCCCCCC(C)(C)c1cc(O)c(C2(O)C3(C)CCC(C3)C2(C)C)c(OC)c1` (stereo not shown) [Compound 5d, 2-(2′-hydroxy-6′-methoxy-4′-(2″-methyloctan-2″-yl)phenyl)-1,3,3-trimethyl-bicyclo[2.2.1]heptan-2-ol], for which the “inhibition of inflammation (paw swelling)” value in assay [5] (25 mg/kg ip, 24 h) is 55% and 56%; in assay [5] (50 mg/kg ip, 2 h) it was 38%; in assay [5] (50 mg/kg ip, 6 h), 67%; in assay [5] (50 mg/kg ip, 24 h) it was 56%. Moreover, in [1] (25 and 50 mg/kg ip, after 6 h), the “anti-nociceptive effect (von Frey)” value was “moderate anti-nociceptive effects”. Besides, the figures for the Ki in assay [9] and in assay [10] (displacement of [3H]CP-55,940) were 451 nM and 24.6 nM, respectively. Moreover, the “functional activity at hCB2R (agonist / inverse agonist)” value in assay [2] is given as “agonist”. Also, a half-maximal effect in assay [2] ([35S]GTPγS binding to hCB2R, two independent experiments in triplicate) (EC50) was put at 14.8 nM. The “E(max) %” value in assay [2] (percentage of HU-308 response at 1 μM) was determined as 105.05%. For the same compound, the mCB1R/hCB2R in assay [10] (selectivity index from Ki values) is recorded as 18.4.
